Data from ChEMBL document CHEMBL1201862, “PubChem BioAssay data set” (2004).
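Protocol summary: plate cells (96-well), add compound at 5 concentrations, incubate 48 h, interpolate endpoints linearly. GI50 marks 50% less growth.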 The source made the active and inactive calls. No stated cut-off is given here; in the data, active = GI50 up to about 1.1 µM and inactive = higher.

Legend:
Experiment in all cases: NCI anticancer screen, dose series, 48 h
786-0 = tested on: 786-0
A498 = tested on: A498
A549 = tested on: A549
ACHN = tested on: ACHN
BT-549 = tested on: BT-549
CAKI-1 = tested on: CAKI-1
CCRF-CEM = tested on: CCRF-CEM
COLO 205 = tested on: COLO 205
DU-145 = tested on: DU-145
EKVX = tested on: EKVX
HCT-116 = tested on: HCT-116
HCT-15 = tested on: HCT-15
HL-60 = tested on: HL-60
HOP-62 = tested on: HOP-62
HOP-92 = tested on: HOP-92
HT-29 = tested on: HT-29
Hs-578T = tested on: Hs-578T
IGROV-1 = tested on: IGROV-1
K562 = tested on: K562
KM12 = tested on: KM12
LOX IMVI = tested on: LOX IMVI
M14 = tested on: M14
MCF7 = tested on: MCF7
MDA-MB-231 = tested on: MDA-MB-231
MDA-MB-435 = tested on: MDA-MB-435
MDA-N = tested on: MDA-N
MOLT-4 = tested on: MOLT-4
Malme-3M = tested on: Malme-3M
NCI-H226 = tested on: NCI-H226
NCI-H23 = tested on: NCI-H23
NCI-H460 = tested on: NCI-H460
NCI-H522 = tested on: NCI-H522
NCI/ADR-RES = tested on: NCI/ADR-RES
OVCAR-3 = tested on: OVCAR-3
OVCAR-4 = tested on: OVCAR-4
OVCAR-5 = tested on: OVCAR-5
OVCAR-8 = tested on: OVCAR-8
PC-3 = tested on: PC-3
RPMI-8226 = tested on: RPMI-8226
RXF 393 = tested on: RXF 393
SF-268 = tested on: SF-268
SF-295 = tested on: SF-295
SF-539 = tested on: SF-539
SK-MEL-28 = tested on: SK-MEL-28
SK-MEL-2 = tested on: SK-MEL-2
SK-MEL-5 = tested on: SK-MEL-5
SK-OV-3 = tested on: SK-OV-3
SN12C = tested on: SN12C
SNB-19 = tested on: SNB-19
SNB-75 = tested on: SNB-75
SR = tested on: SR
SW-620 = tested on: SW-620
T47D = tested on: T47D
TK-10 = tested on: TK-10
U-251 = tested on: U-251
UACC-257 = tested on: UACC-257
UACC-62 = tested on: UACC-62
UO-31 = tested on: UO-31
HCC 2998 = tested on: HCC 2998

Measured: GI50

OCCCNCc1ccccn1
> 100 µM: HCT-15
inactive: 786-0 > 100 µM | A498 > 100 µM | A549 > 100 µM | ACHN > 100 µM | BT-549 > 100 µM | CAKI-1 > 100 µM | CCRF-CEM > 100 µM | COLO 205 > 100 µM | DU-145 > 100 µM | EKVX > 100 µM | HCT-116 > 100 µM | HL-60 68.1 µM | HOP-62 > 100 µM | HOP-92 > 100 µM | HT-29 > 100 µM | Hs-578T > 100 µM | IGROV-1 > 100 µM | K562 > 100 µM | KM12 > 100 µM | LOX IMVI > 100 µM | M14 > 100 µM | MCF7 > 100 µM | MDA-MB-231 > 100 µM | MDA-MB-435 > 100 µM | MDA-N > 100 µM | MOLT-4 > 100 µM | Malme-3M > 100 µM | NCI-H226 > 100 µM | NCI-H23 > 100 µM | NCI-H460 > 100 µM | NCI-H522 > 100 µM | NCI/ADR-RES > 100 µM | OVCAR-3 > 100 µM | OVCAR-4 > 100 µM | OVCAR-5 > 100 µM | OVCAR-8 > 100 µM | PC-3 > 100 µM | RPMI-8226 > 100 µM | RXF 393 > 100 µM | SF-268 > 100 µM | SF-295 > 100 µM | SF-539 > 100 µM | SK-MEL-28 > 100 µM | SK-MEL-2 > 100 µM | SK-MEL-5 > 100 µM | SK-OV-3 > 100 µM | SN12C > 100 µM | SNB-19 > 100 µM | SNB-75 > 100 µM | SR > 100 µM | SW-620 > 100 µM | T47D > 100 µM | TK-10 > 100 µM | U-251 > 100 µM | UACC-257 > 100 µM | UACC-62 > 100 µM | UO-31 > 100 µM

CCOC(=O)NC(C(F)(F)F)(C(F)(F)F)P(=O)(OCC)OCC
28.8 µM: HCT-15
inactive: 786-0 45.2 µM | A498 46.3 µM | ACHN 35.9 µM | BT-549 34 µM | CCRF-CEM 2.71 µM | COLO 205 38.6 µM | DU-145 > 100 µM | HCC 2998 75.2 µM | HCT-116 31 µM | HL-60 65.2 µM | HOP-62 78.9 µM | HOP-92 81.7 µM | HT-29 27.5 µM | Hs-578T 16.9 µM | IGROV-1 40.6 µM | K562 10.9 µM | KM12 43.9 µM | LOX IMVI 12.4 µM | M14 25.9 µM | MCF7 75.2 µM | MDA-MB-231 > 100 µM | MDA-MB-435 44.1 µM | MDA-N 29.2 µM | MOLT-4 4.11 µM | Malme-3M 28.3 µM | NCI-H226 54.1 µM | NCI-H23 34.5 µM | NCI-H460 31.7 µM | NCI-H522 17.4 µM | NCI/ADR-RES 36.7 µM | OVCAR-3 45.2 µM | OVCAR-4 18.7 µM | OVCAR-5 57.1 µM | OVCAR-8 36.6 µM | PC-3 22.8 µM | RPMI-8226 24 µM | RXF 393 11.9 µM | SF-268 42.6 µM | SF-295 51.2 µM | SK-MEL-28 43.4 µM | SK-OV-3 34.9 µM | SN12C 32.8 µM | SNB-19 36.1 µM | SNB-75 19.9 µM | SR > 10 µM | SW-620 17.9 µM | T47D 42.1 µM | TK-10 82 µM | U-251 23.3 µM | UACC-62 28 µM | UO-31 24.3 µM

CC(C)(CN)SCc1ccccc1
inactive: 786-0 > 100 µM | A498 > 100 µM | A549 > 100 µM | ACHN > 100 µM | BT-549 > 100 µM | CAKI-1 > 100 µM | CCRF-CEM > 100 µM | COLO 205 > 100 µM | DU-145 > 100 µM | EKVX > 100 µM | HCT-116 > 100 µM | HL-60 > 100 µM | HOP-62 > 100 µM | HOP-92 > 100 µM | HT-29 > 100 µM | Hs-578T > 100 µM | IGROV-1 > 100 µM | K562 > 100 µM | KM12 > 100 µM | LOX IMVI > 100 µM | M14 > 100 µM | MCF7 > 100 µM | MDA-MB-231 > 100 µM | MDA-MB-435 > 100 µM | MDA-N > 100 µM | MOLT-4 > 100 µM | Malme-3M > 100 µM | NCI-H226 > 100 µM | NCI-H460 > 100 µM | NCI-H522 > 100 µM | NCI/ADR-RES > 100 µM | OVCAR-3 > 100 µM | OVCAR-4 > 100 µM | OVCAR-5 > 100 µM | OVCAR-8 > 100 µM | PC-3 > 100 µM | RPMI-8226 > 100 µM | RXF 393 > 100 µM | SF-268 > 100 µM | SF-295 > 100 µM | SF-539 > 100 µM | SK-MEL-28 > 100 µM | SK-MEL-2 > 100 µM | SK-MEL-5 > 100 µM | SK-OV-3 > 100 µM | SN12C > 100 µM | SNB-19 > 100 µM | SNB-75 > 100 µM | SR > 100 µM | SW-620 > 100 µM | T47D > 100 µM | TK-10 > 100 µM | U-251 > 100 µM | UACC-257 28.7 µM | UACC-62 > 100 µM | UO-31 > 100 µM
> 100 µM: HCT-15

O=[N+]([O-])c1cccc([N+](=O)[O-])c1S(=O)(=O)c1ccccc1
1.92 µM: HCT-15
active: CCRF-CEM < 0.01 µM
inactive: 786-0 2.09 µM | A498 18.8 µM | A549 19.8 µM | ACHN 2.17 µM | BT-549 3.08 µM | CAKI-1 2.04 µM | COLO 205 6.18 µM | DU-145 6.05 µM | EKVX 21.2 µM | HCT-116 1.89 µM | HL-60 2.71 µM | HOP-62 19.9 µM | HOP-92 3.76 µM | HT-29 7.67 µM | Hs-578T 20.8 µM | IGROV-1 1.89 µM | KM12 16.1 µM | LOX IMVI 1.84 µM | M14 2.27 µM | MCF7 5.87 µM | MDA-MB-231 18.2 µM | MDA-MB-435 3.61 µM | MDA-N 5.51 µM | MOLT-4 3.38 µM | Malme-3M 2.28 µM | NCI-H226 12.2 µM | NCI-H23 21.3 µM | NCI-H460 21.7 µM | NCI/ADR-RES 6.24 µM | OVCAR-3 2.49 µM | OVCAR-5 3.66 µM | OVCAR-8 2.48 µM | PC-3 11.9 µM | RPMI-8226 1.46 µM | SF-268 12.2 µM | SF-295 16.4 µM | SF-539 15.8 µM | SK-MEL-28 4.16 µM | SK-MEL-5 14.1 µM | SK-OV-3 16.8 µM | SN12C 3.83 µM | SNB-19 18.3 µM | SR 1.63 µM | SW-620 2.55 µM | T47D 2.13 µM | TK-10 16 µM | U-251 8.95 µM | UACC-257 13.2 µM | UO-31 1.86 µM

CC(=O)C(=[N+]=[N-])C(=O)N1CCOC1=O
> 10 µM: HCT-15
inactive: 786-0 > 10 µM | A498 > 10 µM | A549 > 10 µM | ACHN > 10 µM | BT-549 > 10 µM | CAKI-1 > 10 µM | CCRF-CEM > 10 µM | COLO 205 > 10 µM | DU-145 > 10 µM | EKVX > 10 µM | HCC 2998 > 10 µM | HCT-116 > 10 µM | HL-60 > 10 µM | HOP-62 > 10 µM | HT-29 > 10 µM | Hs-578T > 10 µM | IGROV-1 > 10 µM | K562 > 10 µM | KM12 > 10 µM | LOX IMVI > 10 µM | M14 > 10 µM | MCF7 > 10 µM | MDA-MB-231 > 10 µM | MDA-MB-435 > 10 µM | MDA-N > 10 µM | MOLT-4 > 10 µM | Malme-3M > 10 µM | NCI-H226 > 10 µM | NCI-H23 > 10 µM | NCI-H460 > 10 µM | NCI/ADR-RES > 10 µM | OVCAR-3 > 10 µM | OVCAR-4 > 10 µM | OVCAR-5 > 10 µM | OVCAR-8 > 10 µM | PC-3 > 10 µM | RPMI-8226 > 10 µM | RXF 393 > 10 µM | SF-268 > 10 µM | SF-295 > 10 µM | SF-539 > 10 µM | SK-MEL-28 > 10 µM | SK-MEL-2 > 10 µM | SK-MEL-5 > 10 µM | SK-OV-3 > 10 µM | SN12C > 10 µM | SNB-19 > 10 µM | SNB-75 > 10 µM | SR > 10 µM | SW-620 > 10 µM | T47D > 10 µM | TK-10 > 10 µM | U-251 > 10 µM | UACC-257 > 10 µM | UACC-62 > 10 µM | UO-31 > 10 µM
